The values that follow come from patent US20220041627A1, “PRODRUGS OF ANTI-CANCER AND ANTI-AUTOIMMUNE DISEASES THERAPEUTIC AGENTS, AND METHODS OF MAKING AND USE THEREOF” (UNIVERSITY OF MARYLAND, BALTIMORE, priority 2018, published 2022).

Holding throughout (format): cell-based, human
The subject of one assay is CCRF-CEM. Put plainly: NCI-60 growth inhibition, CCRF-CEM. As to conditions: Leukemia CCRF-CEM, 48 h. From the text: (§1) The anticancer effects of compounds 1a-1b against 60 human cancer cell lines (the Developmental Therapeutics Program of NCI) were studied. The cell lines were derived from different cancer types including leukemia, non-small-cell lung cancer, colon cancer, CNS cancer, melanoma, ovarian cancer, renal cancer, prostate cancer, and breast cancer (Table 1; the assay protocol can be found at: https://dtp.cancer.gov/default.htm). Compound 1a caused over 50% growth inhibition for most tested cell lines. […] Without wishing to be bound by any particular theory, it is believed that the differences in the anticancer effects between compounds 1a and 1b may be due to the more favorable cell membrane permeability of the boronic ester 1a.

The next assay relates to HOP-62. Put plainly: NCI-60 growth inhibition, HOP-62.
Description: as §1

A further assay deals with NCI-H23. Put plainly: NCI-60 growth inhibition, NCI-H23.
Description: as §1

A further assay concerns NCI-H322M. Put plainly: NCI-60 growth inhibition, NCI-H322M. As to conditions: Non-Small Cell lung Cancer NCI-H322M, 48 h.
Description: as §1

A further assay concerns NCI-H460. As to the kind of experiment: NCI-60 growth inhibition, NCI-H460.
Description: as §1

The subject of the next assay is HCC-2998. Put plainly: NCI-60 growth inhibition, HCC-2998.
Description: as §1

The subject of another assay is MDA-MB-435. Put plainly: NCI-60 growth inhibition, MDA-MB-435.
Description: as §1

A further assay concerns SK-MEL-5. As to the kind of experiment: NCI-60 growth inhibition, SK-MEL-5.
Description: as §1

The subject of the next assay is UACC-62. As to the kind of experiment: NCI-60 growth inhibition, UACC-62.
Description: as §1

Another assay deals with OVCAR-3. Put plainly: NCI-60 growth inhibition, OVCAR-3.
Description: as §1

Another assay deals with OVCAR-8. Put plainly: NCI-60 growth inhibition, OVCAR-8.
Description: as §1

For a further assay, the system named is NCI/ADR-RES. Put plainly: NCI-60 growth inhibition, NCI/ADR-RES. As to conditions: Ovarian Cancer NCI/ADR-RES, 48 h.
Description: as §1

The next assay concerns 786-0. As to the kind of experiment: NCI-60 growth inhibition, 786-0.
Description: as §1

For a further assay, the system named is ACHN. As to the kind of experiment: NCI-60 growth inhibition, ACHN. To be noted: Renal Cancer ACHN, 48 h.
Description: as §1

For another assay, the system named is CAKI-1. Put plainly: NCI-60 growth inhibition, CAKI-1.
Description: as §1

The subject of the next assay is MDA-MB-231/ATCC. Put plainly: NCI-60 growth inhibition, MDA-MB-231/ATCC. As to conditions: Breast Cancer MDA-MB-231/ATCC, 48 h.
Description: as §1

The subject of the next assay is BT-549. Put plainly: NCI-60 growth inhibition, BT-549.
Description: as §1

For another assay, the system named is MDA-MB-468. As to the kind of experiment: NCI-60 growth inhibition, MDA-MB-468.
Description: as §1

Another assay concerns γH2AX. As to the kind of experiment: γH2AX immunofluorescence assay in MCF7 cells. To be noted: 48 h. How it is done:
(§2) FIGS. 4A and 4B illustrate the effect of compounds 1a-1b in apoptosis. FIG. 4A: immunofluorescence of DNA cleavage protein γH2Ax was enhanced by using 5-FU and prodrugs 1a-1b. FIG. 4B: immunoblot analysis of MCF-7 cells treated with 5-FU, prodrugs 1a-1b for apoptosis markers PARP1 and Caspase 3. The cells were treated for 48 h with the indicated concentrations of compounds.
Immunohistochemistry Analysis. MCF7 cells were seeded on poly-D-lysine coated slides. Compounds were incubated with cells for 48 h. Following treatment, cells were washed once in PBS and fixed in 10% formalin for 20 min at room temperature. Methanol was used to permeabilize the cells for 10 min and PBS wash was carried out. Bovine serum albumin was used for 1 h blocking and primary antibodies for γH2AX (SCBT, #sc-517348) was incubated with the cells overnight. Fluorescent secondary antibodies were incubated with cells along with DAPI. Cells were washed trice with PBS and the slides were mounted prior to confocal imaging.
(§3) To understand the mechanism of action of prodrugs 1a-1b, the impact of the treatment of compounds 1a-1b on the γH2AX formation in MCF7 cells were determined using immunofluorescence assay (FIG. 4A). […] The effects of prodrugs 1a-1b on the PARP1 and caspase 3 cleavage in MCF7 cells were also determined using Western blots assays (FIG. 4B). […] Treatment of 5-FU and compounds 1a-1b increased the levels of cleavage of PARP1 and caspase 3 in MCF7 cells, as compared with that in the vehicle-treated controls. Therefore, prodrugs 1a-1b, similar to 5-FU, can induce MCF7 cell apoptosis, which might contribute to their pharmacological actions.

The next assay has as its system PARP1. Put plainly: Western blot of PARP1 in MCF7 cells. To be noted: 48 h; for expression level of PARP1: compared to vehicle-treated cells; for level of cleavage of PARP1: compared to vehicle-treated controls. How it is done:
as §2
Western Blot Analysis. Treated cells were washed once with PBS and lysed with RIPA lysis buffer (Santa Cruz Biotechnology, SCBT, #24948) supplemented with sodium orthovanadate, PMSF, protease and phosphatase inhibitor cocktails (Sigma Aldrich). Cell lysates were centrifuge for 15 min at 14,000×g and the supernatant was used for immunoblotting. Protein concentration was normalized for the samples and resolved on a 10-13% SDS-PAGE gel. Following transfer to nitrocellulose membrane, specific mouse primary antibodies from SCBT (PARP1 #sc-8007, caspase 3 #sc-7272) and Cell Signaling (cleaved PARP1 #9541, cleaved caspase-3 #9664) were added and incubated overnight. Secondary antibodies corresponding to the host of the primary antibodies was further incubated with the membrane and washed three times to remove excess antibodies. Odyssey Fc Imaging System (LI-COR, Lincoln, Nebr.) was used to quantify the chemiluminescent of the proteins.
as §3
For orientation: In western blotting, separated proteins are transferred to a membrane and probed.

Structures are written as SMILES.

`CC1(C)OB(c2ccc(Cn3cc(F)c(=O)[nH]c3=O)cc2)OC1(C)C` [Compound 1a, 5-Fluoro-1-(4-(4,4,5,5-tetramethyl-1,3,2-dioxaborolan-2-yl)benzyl)pyrimidine-2,4(1H,3H)-dione]: the inhibition at 50 µM in the assay on CCRF-CEM (Homo sapiens) amounted to 62%; in the assay on HOP-62 (Homo sapiens, Non-Small Cell lung Cancer HOP-62, 48 h), 36%; in the assay on NCI-H23 (Homo sapiens, Non-Small Cell lung Cancer NCI-H23, 48 h), 32%; in the assay on NCI-H322M (Homo sapiens), 14%; with NCI-H460 (Homo sapiens, Non-Small Cell lung Cancer NCI-H460, 48 h), 66%; in the assay with HCC-2998 (Homo sapiens, Colon Cancer HCC-2998, 48 h), 26%. Besides, the inhibition at 50 µM turned out to be 96% in the assay with MDA-MB-435 (Homo sapiens, Melanoma MDA-MB-435, 48 h); 61% with SK-MEL-5 (Homo sapiens, Melanoma SK-MEL-5, 48 h); 71% in the assay on UACC-62 (Homo sapiens, Melanoma UACC-62, 48 h); 95% with OVCAR-3 (Homo sapiens, Ovarian Cancer OVCAR-3, 48 h); 25% in the assay on OVCAR-8 (Homo sapiens, Ovarian Cancer OVCAR-8, 48 h); 6% in the assay with NCI/ADR-RES (Homo sapiens). For the same compound, the inhibition at 50 µM turned out to be 19% in the assay with 786-0 (Homo sapiens, Renal Cancer 786-0, 48 h); 8% with ACHN (Homo sapiens); 25% in the assay with CAKI-1 (Homo sapiens, Renal Cancer CAKI-1, 48 h); 14% in the assay on MDA-MB-231/ATCC (Homo sapiens); 60% in the assay with BT-549 (Homo sapiens, Breast Cancer BT-549, 48 h); 87% in the assay on MDA-MB-468 (Homo sapiens, Breast Cancer MDA-MB-468, 48 h). In addition, the γH2AX formation result with γH2AX is “dramatically increased”. Moreover, the “expression level of PARP1” value with PARP1 is reported as “significantly reduced”. Besides, the “level of cleavage of PARP1” value with PARP1 was “increased”.

As to `O=c1[nH]c(=O)n(Cc2ccc(B(O)O)cc2)cc1F` [Compound 1b, (4-((5-Fluoro-2,4-dioxo-3,4-dihydropyrimidin-I(2H)-yl)methyl)phenyl)boronic acid], the “Growth Inhibition (%)” value with CCRF-CEM (50 μM) was determined as 7%; in the assay on HOP-62 (Non-Small Cell lung Cancer HOP-62, 50 μM, 48 h) it was 10%; in the assay with NCI-H23 (Non-Small Cell lung Cancer NCI-H23, 50 μM, 48 h) it was 6%; in the assay on NCI-H322M (50 μM), 12%; with NCI-H460 (Non-Small Cell lung Cancer NCI-H460, 50 μM, 48 h), 1%; in the assay with HCC-2998 (Colon Cancer HCC-2998, 50 μM, 48 h), 5%. The “Growth Inhibition (%)” value with MDA-MB-435 (Melanoma MDA-MB-435, 50 μM, 48 h) was determined as 65%; with SK-MEL-5 (Melanoma SK-MEL-5, 50 μM, 48 h), 10%; in the assay with UACC-62 (Melanoma UACC-62, 50 μM, 48 h), 30%; in the assay on OVCAR-3 (Ovarian Cancer OVCAR-3, 50 μM, 48 h), 30%; in the assay with OVCAR-8 (Ovarian Cancer OVCAR-8, 50 μM, 48 h), 6%; with NCI/ADR-RES (50 μM), 0%. Further, the “Growth Inhibition (%)” value in the assay with 786-0 (Renal Cancer 786-0, 50 μM, 48 h) is listed as 6%; in the assay on ACHN (50 μM), 0%; with CAKI-1 (Renal Cancer CAKI-1, 50 μM, 48 h), 12%; in the assay with MDA-MB-231/ATCC (50 μM), 13%; in the assay on BT-549 (Breast Cancer BT-549, 50 μM, 48 h), 30%; with MDA-MB-468 (Breast Cancer MDA-MB-468, 50 μM, 48 h) it was 22%. Besides, the γH2AX formation entry with γH2AX is listed as “dramatically increased”. The “expression level of PARP1” value in the assay with PARP1 is reported as “significantly reduced”. In the assay with PARP1, the “level of cleavage of PARP1” value was “increased”.

In general, inhibition refers to the change of the read-out against control, counted positive when it falls. A low value points to a weak effect.
